Measurements as given in publication PMC5614581, “Investigating cyclic nucleotide and cyclic dinucleotide binding to HCN channels by surface plasmon resonance” (PLoS ONE, 2017).
Residue numbers refer to the chain shown, from its start. “Also recorded” adds a separate entry of the source. Where two headings read alike, the source gives them in different places. Values belong to the molecule of their own block, whether it stands above or below them.

Key:
[1] = biological target: isolated C-linker/CNBDs of HCN2 channels; conditions: read-out: binding affinity (SPR, ligand coupled to CM5 chip); cited from earlier work
[2] = biological target: isolated C-linker/CNBDs of HCN4 channels; conditions: read-out: binding affinity (SPR, ligand coupled to CM5 sensor); cited from earlier work
[3] = biological target: isolated C-linker/CNBDs of HCN2 channels; conditions: read-out: binding affinity (FA); cited from earlier work
[4] = biological target: C-linker/CNBDs of HCN4 channels; conditions: read-out: binding affinity (FA), cited from earlier work
[5] = biological target: T1, C-linker/CNBD of human HCN4 (hHCN4, residues 521–723) (Homo sapiens, UniProt Q9Y3Q4); test: SPR, immobilized hHCN4 C-linker/CNBD on NTA chip; conditions: for SPR binding response: analyte alone (no added cAMP), 300 μM or range up to 300 μM; for SPR binding response in the presence of cAMP: in the presence of 100 μM cAMP, analyte 300 μM or range up to 300 μM
T1 sequence (Q9Y3Q4 521-723): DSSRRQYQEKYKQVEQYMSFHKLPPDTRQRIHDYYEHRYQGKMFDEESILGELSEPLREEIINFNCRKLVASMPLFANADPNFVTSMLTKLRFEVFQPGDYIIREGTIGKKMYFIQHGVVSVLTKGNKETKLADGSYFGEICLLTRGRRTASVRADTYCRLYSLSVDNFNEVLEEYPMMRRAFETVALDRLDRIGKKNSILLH
Description: (§1) SPR experiments were performed at 25 °C on a Biacore 4000 Instrument (GE Healthcare). C-linker/CNBDs of wild-type and L586W mutant mHCN2, and hHCN4 channels were immobilized on a NTA chip (GE Healthcare), as previously described [31, 32]. Immobilizations of the proteins were performed in HBS-P buffer (150 mM NaCl, 10 mM HEPES, 0.05% (v/v) surfactant P20, pH 7.4). First the NTA sensor surface was activated with a 1 min injection of 0.5 M NiCl2. The coupling of the Ni^2+-NTA chip surface groups with the 6-His-tagged proteins was then achieved by 2.5 min injections of the proteins at 200 nM concentrations to the chip surface. After the initial capturing, the proteins were covalently cross-linked via 20 s injections of NHS-EDC carboxyl-reactive cross-linkers to prevent protein loss from the chip surface with successive analyte and buffer injections. This was followed by 20 s injection of 1 M ethanolamine to block the remaining reactive sites. The proteins were captured at ~1000–3000 resonance units (RU; 1 RU = 1 pg of protein per mm^2). […] This spot was used as a reference surface to account for a non-specific binding to the chip surface. The binding to the reference surface was subtracted from the binding to the surfaces with immobilized proteins. In addition, the binding corresponding to blank injections (buffer only) was subtracted from the reference subtracted SPR data.
(§2) The binding experiments were performed in the running buffer (150 mM KCl, 10% Glycerol, 1 mM TCEP, 30 mM HEPES, pH 7.5). Analytes over the range of concentrations were injected in triplicates over the chip surface for 60 s at a flow rate of 30 μl /min, followed by buffer only injections. The regeneration of the surface between the analyte injections was not necessary, as the baseline returned to the pre-injection levels. In some experiments we observed a drift in the baseline. […] However, there was minimal residual binding between analyte injections, as indicated by essentially the same binding response for triplicate repeats of analyte injections at the same concentrations.
(§3) Each experiment was repeated on at least three different NTA chips.
(§4) Therefore, concentrations higher than 300 μM were excluded from the analysis. The data analysis and fitting of the plots was performed in Origin (Microcal Software, Inc). Error bars indicate the SEM. […] For each NTA chip an analyte was injected three times. Therefore, each experiment was repeated at least 3xn times. Statistical analysis was performed by using one-way ANOVA. P < 0.05 was considered statistically significant.

[6] = biological target: T2, C-linker/CNBD of mouse HCN2 (mHCN2, residues 443–645) (Mus musculus, UniProt O88703); test: SPR, immobilized mHCN2 C-linker/CNBD on NTA chip; conditions: for Kd: SPR
T2 sequence (O88703 443-645): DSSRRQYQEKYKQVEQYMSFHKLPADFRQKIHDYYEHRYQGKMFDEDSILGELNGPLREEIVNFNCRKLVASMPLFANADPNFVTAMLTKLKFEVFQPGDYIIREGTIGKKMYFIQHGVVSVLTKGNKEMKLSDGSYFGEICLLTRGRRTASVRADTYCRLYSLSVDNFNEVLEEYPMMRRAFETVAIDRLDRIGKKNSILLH
Description: as §1, §2, §3, §4

[7] = system: full-length hHCN4 channels; conditions: cited from earlier work; for effect on cyclic nucleotide modulation of the channel: in the presence of cyclic nucleotides
[8] = biological target: T3, hHCN4 C-linker/CNBD (monomeric) (Homo sapiens, UniProt Q9Y3Q4); test: ITC, 6 μM (monomeric) 6-His tagged hHCN4 C-linker/CNBD; assay type: binding; conditions: 6 μM C-linker/CNBD
T3 construct: human HCN4 (hHCN4, residues 521–723); made in house; host or cells: E. coli BL21 (DE3)
T3 sequence (Q9Y3Q4 521-723): T1 sequence (Q9Y3Q4 521-723)
Description: (§5) For ITC experiments at low concentrations of the hHCN4 C-linker/CNBD the protein was concentrated to 6 μM and dialyzed in 150 mM KCl, 1 mM TCEP, 30 mM HEPES, pH 7.5 overnight at 4°C using a Slide-A-Lyzer dialysis cassette (ThermoFisher Scientific). For ITC experiments at high concentrations of the hHCN4 C-linker/CNBD the protein was concentrated to 80 μM and dialyzed in 100 mM KCl, 1 mM TCEP, 20 mM HEPES, pH 7.0 overnight at 4°C using a Slide-A-Lyzer cassette. The protein solutions were degassed prior to each experiment. ITC titrations were performed at 25°C using the ITC200 calorimeter (Malvern Instruments Inc. Westborough, MA). […] Data analysis was performed with NITPIC and SEDFAT [34, 35] using a single-site binding model for 6 μM C-linker/CNBDs and a two independent binding site model for 80 μM C-linker/CNBDs, as used by Chow et al. [36].

[9] = biological target: T4, hHCN4 C-linker/CNBD (tetrameric) (Homo sapiens, UniProt Q9Y3Q4); test: ITC, 80 μM (tetrameric) hHCN4 C-linker/CNBD after MBP tag cleavage; assay type: binding; conditions: 80 μM C-linker/CNBD
T4 construct: C-linker/CNBD of hHCN4 (residues 521–723); made in house; host or cells: E. coli BL21 (DE3)
T4 sequence (Q9Y3Q4 521-723): T1 sequence (Q9Y3Q4 521-723)
Description: as §5

[10] = system: full-length HCN2 channels; conditions: read-out: affinity for full-length HCN2 channels, electrophysiology; cited from earlier work
[11] = biological target: T5, mHCN2-L586W C-linker/CNBD (Mus musculus, UniProt O88703, L586W); test: SPR, immobilized mHCN2-L586W C-linker/CNBD on NTA chip; assay type: binding
T5 construct: mouse HCN2 (mHCN2, residues 443–645); made in house; host or cells: E. coli BL21 (DE3)
T5 sequence (O88703 443-645 L586W): T2 sequence (O88703 443-645) with L144W
Description: Error bars indicate the SEM. […] Statistical analysis was performed by using one-way ANOVA. P < 0.05 was considered statistically significant.

[12] = biological target: isolated C-linker/CNBDs of HCN2 channels; conditions: cGMP; read-out: binding affinity (ITC); cited from earlier work
[13] = biological target: mHCN2-L586W C-linker/CNBDs; conditions: read-out: binding affinity (tryptophan fluorescence); cited from earlier work
[14] = analyte alone (no added cAMP), 300 μM
[15] = in the presence of 100 μM cAMP, analyte 300 μM

SMILES: NCCCCCCNc1nc2c(N)ncnc2n1[C@@H]1O[C@@H]2COP(=O)(O)O[C@H]2[C@H]1O [8-AHA-cAMP]
- Kd [1]: 10 µM
- Kd [2]: 11 µM

SMILES: Nc1ncnc2c1nc(SCCNC(=S)Nc1ccc(-c3c4ccc(=O)cc-4oc4cc(O)ccc34)c(C(=O)O)c1)n2C1OC2COP(=O)(O)OC2C1O (stereo not drawn) [8-Fluo-cAMP]
- Kd [3]: 300 to 700 nM
- Kd ([4]; 8-Fluo-cAMP): 180 to 280 nM

SMILES: Nc1nc2c(nc(SCCNC(=S)Nc3ccc4c(c3)C(=O)OC43c4ccc(O)cc4Oc4cc(O)ccc43)n2[C@@H]2O[C@@H]3COP(=O)(O)O[C@H]3[C@H]2O)c(=O)[nH]1 [8-Fluo-cGMP]
- Kd ([4]; 8-Fluo-cGMP): 700 nM

- SPR binding response ([5]; listed as c-diAMP): did not detect any binding
- SPR binding response in the presence of cAMP ([5]; listed as c-diAMP): did not detect any binding
- SPR binding response [6, 14]: No increase in the binding response
- SPR binding response ([6]; analyte alone (no added cAMP), 300 μM, listed as c-diAMP): did not detect any binding
- SPR binding response in the presence of cAMP [6, 15]: No increase in the binding response
- SPR binding response in the presence of cAMP ([6]; in the presence of 100 μM cAMP, analyte 300 μM, listed as c-diAMP): did not detect any binding
SMILES: Nc1ncnc2c1ncn2[C@@H]1O[C@@H]2COP(=O)(O)O[C@H]3[C@@H](O)[C@H](n4cnc5c(N)ncnc54)O[C@@H]3COP(=O)(O)O[C@H]2[C@H]1O [c-di-AMP]
- SPR binding response [5]: No increase in the binding response; also recorded: did not show any cyclic dinucleotide binding
- SPR binding response in the presence of cAMP [5]: No increase in the binding response; also recorded: did not show any cyclic dinucleotide binding
- effect on cyclic nucleotide modulation of the channel [7]: antagonized the effect of cyclic nucleotides

- binding (ITC) ([8]; absence of cAMP, titrated with 300 μM ligand): no binding
- binding (ITC) in the presence of cAMP ([8]; presence of 100 μM cAMP in ligand and protein solutions): no binding
- binding (ITC) ([9]; absence of cAMP): no binding
- binding (ITC) in the presence of cAMP ([9]; presence of 1 mM cAMP): no binding
- SPR binding response ([5]; listed as c-diGMP): did not detect any binding
- SPR binding response in the presence of cAMP ([5]; listed as c-diGMP): did not detect any binding
- SPR binding response [6, 14]: did not detect any binding
- SPR binding response in the presence of cAMP [6, 15]: did not detect any binding
SMILES: Nc1nc2c(ncn2[C@@H]2O[C@@H]3COP(=O)(O)O[C@H]4[C@@H](O)[C@H](n5cnc6c(=O)[nH]c(N)nc65)O[C@@H]4COP(=O)(O)O[C@H]3[C@H]2O)c(=O)[nH]1 [c-di-GMP]
- SPR binding response [5]: No increase in the binding response; also recorded: did not show any cyclic dinucleotide binding
- SPR binding response in the presence of cAMP [5]: No increase in the binding response; also recorded: did not show any cyclic dinucleotide binding
- effect on the cAMP-induced V1/2 shift ([7]; 100 μM c-di-GMP, 15 μM cAMP): completely abolishing the effect of 15 μM cAMP
- IC50 ([7]; in the presence of 15 μM cAMP, read-out: apparent affinity for decreasing the cAMP-induced positive shift in V1/2): 1800 nM
- effect on cyclic nucleotide modulation of the channel [7]: antagonized the effect of cyclic nucleotides

SMILES: Nc1nc2c(ncn2[C@@H]2O[C@@H]3COP(=O)(O)O[C@H]4[C@@H](O)[C@H](n5cnc6c(N)ncnc65)O[C@@H]4COP(=O)(O)O[C@@H]2[C@@H]3O)c(=O)[nH]1 [cGAMP]
- SPR binding response [6]: did not detect any binding
- SPR binding response in the presence of cAMP [6]: did not detect any binding
- effect on cyclic nucleotide modulation of the channel [7]: antagonized the effect of cyclic nucleotides

SMILES: Nc1nc2c(ncn2[C@@H]2O[C@@H]3COP(=O)(O)O[C@H]3[C@H]2O)c(=O)[nH]1 [cGMP]
- EC50 [10]: ~6 µM
- Kd ([11]; averaged over different NTA chips, for cGMP only a limit could be estimated, read-out: Kd (averaged binding affinity)): > 73.9 µM
- Kd ([11]; single surface, Fig 2D, read-out: binding affinity (fit of representative dose response plot)): ≥ 70.1 µM
- Kd [12]: 8.5 µM
- affinity for hHCN4 relative to mHCN2 domains ([5]; SPR, P < 0.05 by ANOVA): about two-fold higher
- SPR binding response [5]: robust response
- Kd ([5]; read-out: Kd (averaged binding affinity), SPR, averaged over different NTA chips): 5.5 ± 0.9 µM
- Kd ([5]; read-out: binding affinity (fit of representative dose response plot), SPR, single surface, Fig 3C): 5.6 ± 0.2 µM
- Kd ([6]; read-out: Kd (averaged binding affinity), averaged over different NTA chips, 25 °C, Hill fit): 13.4 ± 2 µM
- Kd ([6]; read-out: binding affinity (fit of representative dose response plot), single surface, Fig 1E): 12.3 ± 1.1 µM
- EC50 ([7]; cGMP, read-out: affinity for full-length hHCN4 channels, electrophysiology): 13.2 µM
- Kd [13]: 62 ± 23 µM
